Experimental data from patent US20220324865A1 (Bayer Aktiengesellschaft, priority 2018, published 2022).

biological target: T1, human EP3 receptor (Homo sapiens, UniProt P43115); assay: Cellular in vitro assay for determining EP3 receptor activity (human EP3 cell line, sulprostone-stimulated calcium luminescence); format: cell-based; conditions: CHO cells expressing human EP3 and mitochondrial Clytin; antagonist mode, sulprostone at EC50; read-out: EP3 CHO mtCLY ANTAG IC50
T1 construct: expressed in transfected cells; host or cells: CHO K1 (Chinese Hamster Ovary), stably co-transfected with Galpha16 and mitochondrial clytin
T1 sequence (P43115 1-390): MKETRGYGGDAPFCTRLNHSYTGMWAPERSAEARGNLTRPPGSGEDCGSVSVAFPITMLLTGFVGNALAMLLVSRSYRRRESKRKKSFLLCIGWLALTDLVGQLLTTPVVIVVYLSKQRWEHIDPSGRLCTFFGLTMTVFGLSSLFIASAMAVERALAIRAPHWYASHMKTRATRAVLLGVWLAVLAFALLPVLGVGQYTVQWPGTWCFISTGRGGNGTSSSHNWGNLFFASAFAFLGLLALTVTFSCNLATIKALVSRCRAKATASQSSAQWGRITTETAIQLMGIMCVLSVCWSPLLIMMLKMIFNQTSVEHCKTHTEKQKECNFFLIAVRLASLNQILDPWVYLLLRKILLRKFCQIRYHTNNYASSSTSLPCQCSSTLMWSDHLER
In short: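 CHO K1 cells stably expressing human EP3 with Gα16 and mitochondrial Clytin, loaded overnight with coelenterazine. Compounds added 10 min before sulprostone at its EC50; antagonism read immediately as reduced calcium-driven luminescence, quadruplicate points.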

| SMILES | IC50 [nM] |
| --- | --- |
| O=C(Nc1cccc2ncccc12)c1cc2c(=O)[nH]c(-c3ccc4ccccc4c3)cn2n1 [Example 2-45, N-(Chinolin-5-yl)-6-(2-naphthyl)-4-oxo-4,5-dihydropyrazolo[1,5-a]pyrazine-2-carboxamide] | 6.05 |
| Cc1ccc([C@@H](C)NC(=O)c2nn3cc(-c4cnc5cccc(C)c5c4)[nH]c(=O)c3c2C(C)C)cc1 [Example 4-55, N-[(1R)-1-(4-Methylphenyl)ethyl]-6-(5-methylquinolin-3-yl)-4-oxo-3-(propan-2-yl)-4,5-dihydropyrazolo[1,5-a]pyrazine-2-carboxamide] | 2.75 |
| COc1ccc(C(C)NC(=O)c2nn3c(C)c(-c4ccc5ccccc5c4)[nH]c(=O)c3c2C)cc1 (stereo not drawn) [Example 3-57, N-[1-(4-Methoxyphenyl)ethyl]-3,7-dimethyl-6-(2-naphthyl)-4-oxo-5H-pyrazolo[1,5-a]pyrazine-2-carboxamide] | 2.95 |
| Cc1c(C(=O)NC(C)c2cccc(Br)c2)nn2c(C)c(-c3ccc4ccccc4c3)[nH]c(=O)c12 (stereo not drawn) [Example 3-24, N-[1-(3-Bromophenyl)ethyl]-3,7-dimethyl-6-(2-naphthyl)-4-oxo-5H-pyrazolo[1,5-a]pyrazine-2-carboxamide] | 4.85 |
| COc1cccc(CNC(=O)c2cc3c(=O)[nH]c(-c4ccc5ccccc5c4)cn3n2)c1 [Example 2-23, N-(3-Methoxybenzyl)-6-(2-naphthyl)-4-oxo-4,5-dihydropyrazolo[1,5-a]pyrazine-2-carboxamide] | 1.14 |
| COC(=O)N1CC(NC(=O)c2cc3c(=O)[nH]c(-c4ccc5ccccc5c4)cn3n2)(c2ccc(F)cc2)C1 [Example 1-50, Methyl 3-(4-fluorophenyl)-3-({[6-(naphthalen-2-yl)-4-oxo-4,5-dihydropyrazolo[1,5-a]pyrazin-2-yl]-carbonyl}amino)azetidine-1-carboxylate] | 3.53 |
| CC[C@@H](C)NC(=O)c1nn2cc(-c3ccc(C)c(Cl)c3)[nH]c(=O)c2c1C [Example 1-149, N-[(2R)-Butan-2-yl]-6-(3-chloro-4-methylphenyl)-3-methyl-4-oxo-4,5-dihydropyrazolo[1,5-a]-pyrazine-2-carboxamide] | 2.33 |
| Cc1ccc([C@@H](C)NC(=O)c2nn3c(C)c(-c4ccc5ccccc5c4)[nH]c(=O)c3c2C)cc1 [Example 3-19, 3,7-Dimethyl-N-[(7R)-1-(4-methylphenyl)ethyl]-6-(naphthalen-2-yl)-4-oxo-4,5-dihydropyrazolo[1,5-a]pyrazine-2-carboxamide] | 1.55 |
| Cc1cccc2ncc(-c3cn4nc(C(=O)NC(C)c5ccc(Cl)cc5Cl)c(C(C)C)c4c(=O)[nH]3)cc12 (stereo not drawn) [Example 4-82, N-[1-(2,4-Dichlorophenyl)ethyl]-3-isopropyl-6-(5-methyl-3-quinolyl)-4-oxo-5H-pyrazolo[1,5-a]pyrazine-2-carboxamide] | 6.25 |
| COc1ccc(C(C)NC(=O)c2nn3cc(-c4ccc5ccccc5c4)[nH]c(=O)c3c2C#N)cn1 (stereo not drawn) [Example 3-50, 3-Cyano-N-[1-(6-methoxy-3-pyridyl)ethyl]-6-(2-naphthyl)-4-oxo-5H-pyrazolo[1,5-a]pyrazine-2-carboxamide] | 1.75 |
| Cc1cccc2ncc(-c3cn4nc(C(=O)N[C@@H](C)c5cnccn5)c(C(C)C)c4c(=O)[nH]3)cc12 [Example 4-28, 6-(5-Methylquinolin-3-yl)-4-oxo-3-(propan-2-yl)-N-[(7S)-1-(pyrazin-2-yl)ethyl]-4,5-dihydropyrazolo[1,5-a]pyrazine-2-carboxamide] | 2.15 |
| N#Cc1c(C(=O)N[C@@H]2CCCc3ccccc32)nn2cc(-c3ccc4ccccc4c3)[nH]c(=O)c12 [Example 3-48, 3-Cyano-6-(naphthalen-2-yl)-4-oxo-N-[(7R)-1,2,3,4-tetrahydronaphthalen-1-yl]-4,5-dihydropyrazolo[1,5-a]pyrazine-2-carboxamide] | 5.5 |
| COc1ccc(C(C)NC(=O)c2nn3c(C)c(-c4ccc5ccccc5c4)[nH]c(=O)c3c2C)cc1F (stereo not drawn) [Example 3-74, N-[1-(3-Fluoro-4-methoxyphenyl)ethyl]-3,7-dimethyl-6-(2-naphthyl)-4-oxo-5H-pyrazolo[1,5-a]pyrazine-2-carboxamide] | 4.8 |
| CC(NC(=O)c1cc2c(=O)[nH]c(-c3ccc4ccccc4c3)cn2n1)c1ccccc1OC(F)F (stereo not drawn) [Example 2-50, N-{1-[2-(Difluormethoxy)phenyl]ethyl}-6-(2-naphthyl)-4-oxo-4,5-dihydropyrazolo[1,5-a]pyrazine-2-carboxamide] | 1.15 |
| CCN(CCO)CC(NC(=O)c1cc2c(=O)[nH]c(-c3cnc4cccc(C)c4c3)cn2n1)c1ccccc1 (stereo not drawn) [Example 1-115, N-[2-[Ethyl(2-hydroxyethyl)amino]-1-phenylethyl]-6-(5-methyl-3-quinolyl)-4-oxo-5H-pyrazolo-[1,5-a]pyrazine-2-carboxamide] | 3.4 |
| Cc1ccc(-c2cn3nc(C(=O)N[C@@H](c4ccc(F)cc4)C(C)(C)O)c(C4CC4)c3c(=O)[nH]2)cc1F [Example 1-158] | 0.983 |

Further lines, results first:

| IC50 [nM] | SMILES |
| --- | --- |
| 1.75 | O=C(NC1(c2ccc(F)cc2)CC1)c1cc2c(=O)[nH]c(-c3ccc4ccccc4c3)cn2n1 [6-18] |
| 5.2 | CC[C@H](C)NC(=O)c1nn2cc(-c3ccc(Cl)c(C)c3)[nH]c(=O)c2c1C(F)(F)F [6-216] |
| 4 | Cc1cc(-c2cn3nc(C(=O)NC4(c5ccc(F)cc5)CN(C)C4)c(C4CC4)c3c(=O)[nH]2)ccc1Cl [6-333] |
| 4.25 | O=C(N[C@@H](c1ccc(F)cc1)C(F)(F)CO)c1nn2cc(-c3ccc(C(F)(F)F)c(F)c3F)[nH]c(=O)c2c1C1CC1 [6-601] |
| 4 | Cc1ccc(-c2cn3nc(C(=O)NCc4ccccc4)cc3c(=O)[nH]2)cc1C [6-22] |
| 3.13 | C[C@@H](NC(=O)c1cc2c(=O)[nH]c(-c3cnc4ccccc4c3)cn2n1)c1ccc(F)cc1 [6-62] |
| 2.8 | Cc1ccc(-c2cn3nc(C(=O)NC4(c5ccc(F)cc5)CN(C)C4)c(C4CC4)c3c(=O)[nH]2)cc1Cl [6-262] |
| 1.03 | Cc1ccc(-c2cn3nc(C(=O)N[C@H](CCO)c4ccc(F)cc4)c(C)c3c(=O)[nH]2)cc1F [6-408] |
| 2.8 | C[C@H](NC(=O)c1nn2cc(-c3ccc(Cl)c(Cl)c3)[nH]c(=O)c2c1C1CC(F)(F)C1)C1CC1 [6-553] |
| 4.7 | CCN1CCC(NC(=O)c2nn3cc(-c4ccc(C)c(F)c4)[nH]c(=O)c3c2C2CC2)(C(F)(F)F)C1 (single isomer, unassigned) [6-405] |
| 3.7 | Cc1ccc(-c2cn3nc(C(=O)N[C@@H](c4ccc(F)cc4)C(C)(C)O)c(C)c3c(=O)[nH]2)nc1C [6-634] |
| 1.15 | Cc1cc(-c2cn3nc(C(=O)NC4CC(F)(F)C4)c(C4CC4)c3c(=O)[nH]2)ccc1Cl [6-297] |
| 4.2 | CN(CCNC(=O)c1nn2cc(-c3ccc4ccccc4c3)[nH]c(=O)c2c1C(F)(F)F)C1CC1 [6-517] |
| 1.8 | CN1CC(NC(=O)c2nn3cc(-c4cc(F)c(Cl)c(F)c4)[nH]c(=O)c3c2C2CC2)(c2ccc(F)cc2)C1 [6-471] |
| 2.8 | O=C(NCC(O)C(F)(F)F)c1nn2cc(-c3ccc(Cl)c(Cl)c3)[nH]c(=O)c2c1C1CC1 (single isomer, unassigned) [6-416] |
| 7.12 | Cc1ccc(-c2cn3nc(C(=O)NCC(O)C(F)(F)F)c(C)c3c(=O)[nH]2)cc1F (racemic) [6-409] |

| IC50 [nM] | SMILES |
| --- | --- |
| 2.3 | Cc1ccc(-c2cn3nc(C(=O)N[C@@H](C)CO)c(C4CCC4)c3c(=O)[nH]2)cc1C [6-578] |
| 1.5 | Cc1cc(-c2cn3nc(C(=O)N[C@H](C)C4CC4)c(C(C)C)c3c(=O)[nH]2)ccc1Cl [6-609] |
| 1.2 | Cc1ccc(-c2cn3nc(C(=O)N[C@H](C)c4ccc(F)cc4)cc3c(=O)[nH]2)cc1C [6-36] |
| 2.3 | Cc1ccc(-c2cn3nc(C(=O)N[C@@H](C)C4CC4)c(C4CC4)c3c(=O)[nH]2)cc1Cl [6-254] |
| 9.43 | C[C@@H](CO)NC(=O)c1nn2cc(-c3ccc4ccccc4c3)[nH]c(=O)c2c1C(F)(F)F [6-526] |
| 1.7 | Cc1ccc(-c2cn3nc(C(=O)N[C@H](C)C4CC4)c(C(F)(F)F)c3c(=O)[nH]2)cc1Cl [6-172] |
| 1.03 | Cc1ccc(-c2cn3nc(C(=O)NC(c4ccccc4)C(O)C(F)(F)F)c(C)c3c(=O)[nH]2)cc1F (stereo not drawn) [6-407] |
| 3.15 | O=C(NC1CCN(CC(F)F)C1)c1nn2cc(-c3ccc4ccccc4c3)[nH]c(=O)c2c1C(F)(F)F (single isomer, unassigned) [6-520] |
| 3.85 | Cc1ccc(-c2[nH]c(=O)c3c(C4CC4)c(C(=O)N[C@H](C)c4ccc(F)cc4)nn3c2F)cc1Cl [6-663] |
| 1.35 | Cc1cc(-c2cn3nc(C(=O)N[C@@H](C)C4CC4)c(C(F)(F)F)c3c(=O)[nH]2)ccc1Cl [6-214] |
| 2.58 | CC(C)(O)[C@@H](NC(=O)c1nn2cc(-c3cc(F)c(Cl)c(F)c3)[nH]c(=O)c2c1C1CC1)c1ccc(F)cc1 [6-475] |
| 1.25 | O=C(NC1(c2ccc(F)cc2)CN(C2CC2)C1)c1nn2cc(-c3ccc(Cl)c(F)c3)[nH]c(=O)c2c1C1CC1 [6-104] |
| 1 | Cc1cc(-c2cn3nc(C(=O)N[C@@H](C)C4CC4)c(C4CCC4)c3c(=O)[nH]2)ccc1Cl [6-618] |
| 6.7 | COCc1c(C(=O)N[C@@H](c2ccc(F)cc2)C(F)(F)CO)nn2cc(-c3ccc(Cl)c(F)c3)[nH]c(=O)c12 [6-624] |
| 1.3 | C[C@H](NC(=O)c1nn2cc(-c3ccc(Cl)c(F)c3)[nH]c(=O)c2c1C1CCC1)C1CC1 [6-570] |
| 1.87 | COc1ccc(CNC(=O)c2cc3c(=O)[nH]c(-c4ccc5c(c4)OCCO5)cn3n2)cc1OC [6-76] |
